Assay results as given in patent US7524853B2 (Solvay Pharmaceuticals B.V., priority 2003, dated 2009).

Experiments:
Assay type in all cases: cell-based
[1] = molecular target: T1, 17β-hydroxysteroid dehydrogenase type 2 (17β-HSD type 2) (Homo sapiens, UniProt P37059); assay: Inhibition of 17β-HSD type 2 in MCF-7 cells stably expressing the isoenzyme (tritium labeled estradiol conversion, HPLC); details: MCF-7 cells expressing 17β-HSD type 2, 2 nM tritium labeled estradiol; for inhibition at 1 µM / inhibition at 10 µM: MCF7; for inhibition at 1 µM: read-out: % Inhibition HSD2 1 μM; for inhibition at 10 µM: read-out: % Inhibition HSD2 10 μM
T1 construct: expressed in transfected cells; host or cells: MCF-7
T1 sequence (P37059 1-387): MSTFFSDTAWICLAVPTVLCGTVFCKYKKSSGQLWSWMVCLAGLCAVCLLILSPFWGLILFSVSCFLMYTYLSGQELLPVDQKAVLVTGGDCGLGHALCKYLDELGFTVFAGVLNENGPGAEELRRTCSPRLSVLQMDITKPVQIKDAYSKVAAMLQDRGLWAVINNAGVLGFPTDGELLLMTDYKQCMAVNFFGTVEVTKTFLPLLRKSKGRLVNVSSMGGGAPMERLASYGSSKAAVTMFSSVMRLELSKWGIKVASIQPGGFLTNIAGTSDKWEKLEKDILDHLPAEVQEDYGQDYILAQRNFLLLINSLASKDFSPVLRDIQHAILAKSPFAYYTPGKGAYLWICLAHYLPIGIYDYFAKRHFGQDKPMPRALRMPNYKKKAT
In short: (§1)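 Cells: stable MCF-7 transfectants per isoenzyme. Step one, add compound (two concentrations) plus 2 nM labelled substrate to growth medium. Step two, remove medium at a set time and stop with trichloroacetic acid. Step three, quantify conversion by HPLC with flow scintillation.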

[2] = molecular target: T2, 17β-hydroxysteroid dehydrogenase type 3 (17β-HSD type 3) (Homo sapiens, UniProt P37058); assay: Inhibition of 17β-HSD type 3 in MCF-7 cells stably expressing the isoenzyme (tritium labeled androstenedione conversion, HPLC); details: MCF-7 cells expressing 17β-HSD type 3, 2 nM tritium labeled androstenedione; for inhibition at 1 µM / inhibition at 10 µM: MCF7; for inhibition at 1 µM: read-out: % Inhibition HSD3 1 μM; for inhibition at 10 µM: read-out: % Inhibition HSD3 10 μM
T2 construct: expressed in transfected cells; host or cells: MCF-7
T2 sequence (P37058 1-310): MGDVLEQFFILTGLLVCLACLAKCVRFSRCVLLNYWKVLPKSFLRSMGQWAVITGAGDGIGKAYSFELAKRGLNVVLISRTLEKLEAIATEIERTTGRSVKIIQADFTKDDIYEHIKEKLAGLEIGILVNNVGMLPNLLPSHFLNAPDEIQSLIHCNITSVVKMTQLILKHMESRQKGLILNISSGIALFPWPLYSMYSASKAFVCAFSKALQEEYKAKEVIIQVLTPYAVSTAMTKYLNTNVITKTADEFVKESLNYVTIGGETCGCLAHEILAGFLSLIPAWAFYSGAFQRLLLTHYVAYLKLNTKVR
In short: as §1

[3] = molecular target: T3, 17β-hydroxysteroid dehydrogenase type 1 (17β-HSD type 1) (Homo sapiens, UniProt P14061); assay: Inhibition of 17β-HSD type 1 in MCF-7 cells stably expressing the isoenzyme (tritium labeled estrone conversion, HPLC); details: MCF-7 cells expressing 17β-HSD type 1, 2 nM tritium labeled estrone; for inhibition at 1 µM / inhibition at 10 µM: MCF7; for inhibition at 1 µM: read-out: % Inhibition HSD1 1 μM; for inhibition at 10 µM: read-out: % Inhibition HSD1 10 μM
T3 construct: expressed in transfected cells; host or cells: MCF-7
T3 sequence (P14061 1-328): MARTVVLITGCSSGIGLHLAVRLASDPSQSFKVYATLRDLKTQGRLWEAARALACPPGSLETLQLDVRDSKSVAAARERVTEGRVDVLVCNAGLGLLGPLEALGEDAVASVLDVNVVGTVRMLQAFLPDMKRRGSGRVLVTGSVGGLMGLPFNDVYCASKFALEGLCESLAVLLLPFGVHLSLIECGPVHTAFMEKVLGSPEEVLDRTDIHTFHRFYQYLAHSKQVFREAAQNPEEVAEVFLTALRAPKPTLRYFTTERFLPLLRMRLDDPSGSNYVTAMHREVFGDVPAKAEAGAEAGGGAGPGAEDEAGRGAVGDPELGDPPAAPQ
In short: as §1

SMILES	inhibition at 1 µM ([1]; 1 μM test compound)	inhibition at 10 µM ([1]; 10 μM test compound)	inhibition at 1 µM ([2]; 1 μM test compound)	inhibition at 10 µM ([2]; 10 μM test compound)	inhibition at 1 µM ([3]; 1 μM test compound)	inhibition at 10 µM ([3]; 10 μM test compound)	% Inhibition HSD2 1 μM ([1]; 1 μM test compound)	% Inhibition HSD2 10 μM ([1]; 10 μM test compound)	% Inhibition HSD3 1 μM ([2]; 1 μM test compound)	% Inhibition HSD3 10 μM ([2]; 10 μM test compound)	% Inhibition HSD1 1 μM ([3]; 1 μM test compound)	% Inhibition HSD1 10 μM ([3]; 10 μM test compound)
O=C1CCCc2c1sc1nc(-c3ccc(Br)s3)n(Cc3ccccc3)c(=O)c21 [No. 64, 3-Benzyl-2-(5-bromothiophen-2-yl)-6,7-dihydro-3H,5H-benzo[4,5]thieno[2,3-d]pyrimidine-4,8-dione]	15.4%	16.6%	12.1%	49%	15%	20.7%	–	–	–	–	–	–
COc1cc(-c2nc3sc4c(c3c(=O)n2Cc2ccccc2)CCC(C=O)=C4Oc2ccccc2)cc(OC)c1OC [No. 4, 3-Benzyl-4-oxo-8-phenoxy-2-(3,4,5-trimethoxyphenyl)-3,4,5,6-tetrahydro-benzo[4,5]thieno[2,3-d]pyrimidine-7-carbaldehyde]	-4.3%	20.1%	-7.2%	6.5%	20.1%	30.7%	–	–	–	–	–	–
CCCc1nc2sc3c(c2c(=O)n1Cc1ccco1)CCCC3=O [No. 102, 3-(Furan-2-ylmethyl)-2-propyl-6,7-dihydro-3H,5H-benzo[4,5]thieno[2,3-d]pyrimidine-4,8-dione]	13.6%	18.6%	6.7%	51.2%	14.8%	57.5%	–	–	–	–	–	–
O=c1c2c(nc(Cc3ccccc3)n1Cc1ccccc1)sc1c(O)cccc12 [No. 660]	–	–	–	–	–	–	19.8%	48.9%	16.6%	19.9%	21.7%	37.1%
O=c1c2c(nc(-c3ccccc3)n1Cc1ccccc1)sc1c(O)c(Br)ccc12 [No. 92, 3-Benzyl-7-bromo-8-hydroxy-2-phenyl-3H-benzo[4,5]thieno[2,3-d]pyrimidin-4-one]	42.7%	60.9%	4.7%	24.3%	22%	23.3%	–	–	–	–	–	–
CCSC1=C(C=O)CCc2c1sc1nc(-c3ccc(OC)cc3)n(Cc3ccccc3)c(=O)c21 [No. 16, 3-Benzyl-8-ethylsulfanyl-2-(p-methoxyphenyl)-4-oxo-3,4,5,6-tetrahydro-benzo[4,5]thieno[2,3-d]pyrimidine-7-carbaldehyde]	5%	20.1%	75.7%	100%	1.7%	33.5%	–	–	–	–	–	–
CCCCn1c(-c2cc(OC)c(OC)c(OC)c2)nc2sc3c(c2c1=O)CCCC3=O [No. 86, 3-Butyl-2-(3,4,5-trimethoxyphenyl)-6,7-dihydro-3H,5H-benzo[4,5]thieno[2,3-d]pyrimidine-4,8-dione]	18.9%	19.5%	11.3%	45.7%	23.6%	46.6%	–	–	–	–	–	–
COc1cccc(-c2nc3sc4c(OC(C)=O)cccc4c3c(=O)n2Cc2ccccc2)c1 [No. 84, Acetic acid 3-benzyl-4-oxo-2-(m-methoxyphenyl)-3,4-dihydro-benzo[4,5]thieno[2,3-d]pyrimidin-8-yl ester]	26.4%	63.6%	4%	33.5%	10.2%	22.6%	–	–	–	–	–	–
